This is an account of results in US20200164065A1, “TRITERPENE SAPONIN ANALOGUES” (ADJUVANCE TECHNOLOGIES, INC., priority 2017, published 2020).

Like-named read-outs stand apart in the source and are kept apart here.

One series concerns HA from H3N2 virus. In words: Anti-HA total IgG ELISA after immunization with HA protein. It is filed as in vivo, female BL/6 mice. The conditions noted are these: 50 μg Compound I-4 with 9 or 3 μg/ml HA protein vs 9 μg/ml HA alone, day 21 serum.
The conditions of series [1]: mouse, in vivo.
The next series can be described thus: Stability at 37° C. It is filed as physicochemical. The conditions noted are these: after two weeks at 37° C.
A short description of series [2]: Pharm/tox study with Adacel, QS-21 and TiterQuil-1055: body weight.
From the text: A 0.5 mcg dose of Adacel was selected for a pharmacology/toxicology (pharm/tox) study.
Mice were vaccinated SC on days 1 and 15, weighed daily, and bled and sacrificed on day 22, except for group 7 which was sacrificed on day 29.
The subject of the next series is liver. In words: Pilot pharm/tox study: histopathology of 33 tissues.
The test system of another series is hemolysis. The experiment in a line: Hemolytic assay. It is filed as cell-based.
Series [3] in a line: Companion toxicity study: body mass three days after immunization. The conditions noted are these: 20 mcg.
For series [4] the following is noted: cited from earlier work.

Method for Stability at 37° C.: (§1) Natural and synthetic QS-21 (SQS-21 or SAPONEX®) and a variety of analogs were tested for hemolytic activity.
Method for hemolysis: as §1

`CC1O[C@@H](OC2C(O)[C@@H](NC(=O)CCCCCCCCCCC(=O)O)C(CO)O[C@H]2OC(=O)[C@]23CCC(C)(C)CC2C2=CCC4C5(C)CC[C@H](O)C(C)(C=O)C5CCC4(C)C2(C)CC3O)C(O)C(O)[C@H]1O[C@@H]1OC[C@@H](O)C(O)C1O` (some centres unmarked) [Compound I-4]: the “anti-HA total IgG endpoint titer and dose sparing of HA” value in the series with HA from H3N2 virus was “enhances anti-HA total IgG and provides a dose sparing effect on HA concentration”. The “body mass gained on average” value in series [1] is on record as 5%. For the same compound, the degraded entry in the series “Stability at 37° C.” is “without detectable degradation”. Also, the weight loss result in series [2] (mice receiving 50 mcg) is given as “No weight loss”, the weight loss result (30 mcg dose with Engerix-B) was “No weight loss”, the weight loss (100 mcg dose with Engerix-B) turned out to be 4% and the weight loss (300 mcg dose with Engerix-B) came to 5%. Moreover, the “liver histopathology (hepatocellular cytoplasmic vacuolization)” value in the series on liver (SC days 1 and 15, sacrificed day 22, 50 mcg TiterQuil-1055, 20 mcg QS-21, Adacel 2.5 mcg pertussis toxin) is “No changes at all”. Besides, the hemolytic activity entry in the series with hemolysis is “much lower or undetectable hemolytic activity”.

Compound QS-21 [reference compound] gave a degraded in “Stability at 37° C.” of 20%. Besides, the body weight lost in [2] (mice injected with 20 mcg) is recorded as 8-9%. The “body mass lost on average” value in series [3] is on record as 8-10%. Besides, in series [4] (cancer patients, above it local and systemic side effects), the “tolerated / maximum dose in cancer patients” value was 100 to 150 µg. Further, the “maximum dose for healthy patients” value in [4] (healthy patients) was ~50 µg. For the same compound, the “highest practical tolerable dose” value in series [4] (well (non-cancer) adult and child recipients) was 25 to 50 µg. Besides, in the series with liver (mouse, in vivo, sc), the “liver histopathology (hepatocellular cytoplasmic vacuolization)” value is reported as “Mild vacuolar changes”. The hemolytic activity result in the series on hemolysis was “highly hemolytically active”.
